# Measurements: patent US20130116323A1, “METHODS OF IMPROVING OR PRESERVING LUNG FUNCTION IN A PATIENT WITH A PULMONARY DISORDER” (The Leland Stanford Junior University, priority 2011, published 2013)
# Entries after “also recorded” stand apart in the source; their conditions may differ.
# Columns and labels:
# CF patients [1] = assay: Phase II trial in CF patients: initial 16 subject safety cohort; type: in vivo, human; settings: first 16 subject safety cohort
# Procedure: (§1) A 6-month multi-center phase II clinical trial was performed to evaluate the effect of N-acetylcysteine (PharmaNAC®, BioAdvantex Pharma, Missisauga, Ontario Canada)) 900 mg effervescent tablets taken orally 3 times a day on airway inflammation in CF patients. 70 subjects were randomized to placebo or study drug. Randomization was stratified by study site, baseline FEV1, age, gender, chronic azithromycin, inhaled aztreonam for inhalation solution (AZLI) or tobramycin inhalation solution, USP (TOBI®, Novartis) and ibuprofen use. A cohort of 16 subjects served as an initial safety cohort.
# General objectives of the study included determination of safety, tolerability and efficacy of NAC versus placebo at 0 week, 6 weeks, 12 week and 24 week time points. More specific objectives included evaluation of: (a) effect of NAC on number of pulmonary and sinus exacerbations and antibiotic use, (b) effect of NAC on lung inflammation; (c) effect of NAC on pulmonary function; (d) effect of NAC on weight; (e) effect of NAC on quality of life (QOL) and (f) whether NAC causes pulmonary hypertension if used chronically in high doses.
# Effect of long-term treatment with NAC in promoting the development of pulmonary hypertension (PH) in subjects with cystic fibrosis is examined. A panel of clinical and molecular studies, performed at 6-week intervals, is assessed. […]
# patients with IPF = settings: 600 mg NAC three times daily added to prednisone plus azothioprine, one year, versus standard therapy alone; cited from earlier work
# ARDS and ALI = settings: randomized controlled trials; cited from earlier work
# [2] = compared with cysteine; cited from earlier work
# [3] = compared with the stable cysteine disulfide; cited from earlier work
# patients with COPD = settings: 600 mg oral NAC per day, COPD patients with at least two exacerbations per year for 2 years; cited from earlier work
# CF patients [4] = assay: Phase II randomized placebo-controlled trial of oral NAC in CF patients: lung function by spirometry; type: in vivo, human
# Procedure: A 24-week (6-month) multi-center large clinical trial was designed with randomization stratified to improve balance of baseline characteristics between treatment groups, and to improve precision between group treatment effects.
# as §1
# General objectives of the study included determination of safety, tolerability and efficacy of NAC versus placebo at 0 week, 6 weeks, 12 week and 24 week time points. […]
# (§2) The primary efficacy endpoint in this study were sputum elastase activity as measured by ELISA assay reflecting lung inflammation. […]
# (§3) The effect of NAC on chronic airway inflammation was measured by examining the change in the log10 of neutrophil elastase activity measured in sputum from enrollment to the end of the trial. The effect of NAC on neutrophil recruitment, lung function, pulmonary and sinus exacerbations, and on weight of CF subjects was measured by: change in the sputum neutrophil count, change in IL-8 in sputum and plasma, change in GSH in whole blood, incidence of pulmonary exacerbations, number of and time to first pulmonary exacerbation, incidence and number of antibiotics for any reason, and change in FEV1. Patient-reported outcomes (PRO) were measured by the CFQ-R and CFRD instruments.
# [5] = system: Human Neurophil Elastase (HNE); assay: Phase II trial in CF patients: sputum neutrophil elastase activity (airway inflammation); type: in vivo; settings: 900 mg orally 3 times a day, 24 weeks, versus placebo
# Procedure: A 6-month multi-center phase II clinical trial was performed to evaluate the effect of N-acetylcysteine (PharmaNAC®, BioAdvantex Pharma, Missisauga, Ontario Canada)) 900 mg effervescent tablets taken orally 3 times a day on airway inflammation in CF patients. 70 subjects were randomized to placebo or study drug. Randomization was stratified by study site, baseline FEV1, age, gender, chronic azithromycin, inhaled aztreonam for inhalation solution (AZLI) or tobramycin inhalation solution, USP (TOBI®, Novartis) and ibuprofen use. A cohort of 16 subjects served as an initial safety cohort. The primary efficacy endpoint in this study were sputum elastase activity as measured by ELISA assay reflecting lung inflammation. […] The effect of NAC on chronic airway inflammation was measured by examining the change in the log10 of neutrophil elastase activity measured in sputum from enrollment to the end of the trial. The effect of NAC on neutrophil recruitment, lung function, pulmonary and sinus exacerbations, and on weight of CF subjects was measured by: change in the sputum neutrophil count, change in IL-8 in sputum and plasma, change in GSH in whole blood, incidence of pulmonary exacerbations, number of and time to first pulmonary exacerbation, incidence and number of antibiotics for any reason, and change in FEV1. Patient-reported outcomes (PRO) were measured by the CFQ-R and CFRD instruments.
# CF patients [6] = assay: Phase II trial in CF patients: pulmonary and sinus exacerbations and new antibiotic use; type: in vivo, human; settings: 900 mg orally 3 times a day, 24 weeks, versus placebo
# Procedure: A 6-month multi-center phase II clinical trial was performed to evaluate the effect of N-acetylcysteine (PharmaNAC®, BioAdvantex Pharma, Missisauga, Ontario Canada)) 900 mg effervescent tablets taken orally 3 times a day on airway inflammation in CF patients. 70 subjects were randomized to placebo or study drug. Randomization was stratified by study site, baseline FEV1, age, gender, chronic azithromycin, inhaled aztreonam for inhalation solution (AZLI) or tobramycin inhalation solution, USP (TOBI®, Novartis) and ibuprofen use. A cohort of 16 subjects served as an initial safety cohort. […]
# as §2, §3
# [7] = effects counter to those reported for NAC; cited from earlier work
# [8] = 900 mg orally 3 times a day, 6-month period, versus placebo
Structure (SMILES),adverse events (CF patients [1]),pulmonary hypertension (CF patients [1]),deterioration of DLCO (patients with IPF),deterioration of vital capacity (patients with IPF),early mortality (ARDS and ALI),stability relative to cysteine [2],solubility relative to cystine [3],preventing deterioration in lung function and exacerbations (patients with COPD),"FEV1 (lung function) versus baseline (CF patients [4]; 900 mg effervescent tablets orally 3 times a day, 6-month trial period, versus placebo (P=0.02))",FEF (lung function) (CF patients [4]; [8]),FVC (lung function) (CF patients [4]; [8]),"airways inflammation, measured by HNE [5]",new antibiotic prescriptions (CF patients [6]),number of pulmonary or sinus exacerbations (CF patients [6]),bioactive dose relative to NAC [7]
"CC(=O)N[C@@H](CS)C(=O)O [NAC, N-acetylcysteine]",No adverse events,no pulmonary hypertension,slows the deterioration,slows the deterioration,no effect,about 10 times,much more soluble,ineffective,maintained baseline FEV1; also recorded: maintained lung function,maintained lung function,maintained lung function,No difference was detected,No difference was detected,No difference was detected,–
"CC(=O)N[C@@H](CSSC[C@H](NC(C)=O)C(=O)O)C(=O)O [oxidized form of NAC, di-N-acetylcysteine]",–,–,–,–,–,–,–,–,–,–,–,–,–,–,10-100 fold less than NAC
